Reference: patent publication US20060210480A1, “Treatment of reduction of dysphagia” (priority 2005, published 2006)

What was measured:
[1] = tested on: human cortical swallowing pathways; test: Ten-minute liquid swallowing task with taste solutions; TMS-evoked cortico-pharyngeal motor responses (Example 1); type: in vivo; settings: 8 healthy adult volunteers; 0.5 mM quinine hydrochloride swallowing task; immediately and throughout 60 minutes post-intervention; p<0.01
Protocol: An assessment was made as to the effects of different taste stimuli on human cortical swallowing pathways. The assessment was made upon 8 healthy adult volunteers (seven of which were male, the minimum age of the volunteers being 29 years).
Each volunteer performed a ten-minute, liquid swallowing task using three (previously titrated) different taste solutions. The three solutions utilised were sterile water (neutral taste), 10% glucose (sweet/pleasant taste), and 0.5 mM quinine hydrochloride (bitter/aversive taste). Solutions were randomised to separate studies at least 24 hours apart.
Transcranial magnetic stimulation was performed over the swallowing motor cortex, before and up to one hour after each swallow task in accordance with established protocols. Briefly, Single pulse (monophasic) transcranial stimulation (sTMS) of the cerebral cortex was achieved using a magnetic stimulator (a Magstim 200, manufactured by MAGSTIM Company Limited, Whitland, Wales) connected to a 70 mm outer diameter figure-of-8 coil (maximal output of 2.2 Tesla (T)), held in an A-P (Anterior-Posterior) direction, at an angle of 45° tangential to the scalp. […]
Cortico-pharyngeal motor responses were recorded from a swallowed intra-luminal catheter as a measure of cortical excitability. […]

swallowing response [2] = test: Ten-minute infusion of taste stimuli onto the taste receptors of the tongue; pharyngeal MEP (Example 2); type: in vivo, human; settings: volunteers; ten minute infusion to tongue taste receptors; taken over a 60 minute period from administration
Source text: Confirmation of the suitability of […] tasting substances such as the alkaloid quinine to stimulate the swallowing response and thereby aid treatment or reduction of dysphagia was obtained from a second study measuring swallowing reflexes of volunteers receiving neutral, pleasant or aversive taste stimuli. Volunteers receive a ten minute infusion of neutral (water), pleasant (glucose) or aversive (quinine) taste stimuli administered such that they stimulated the taste receptors of the tongue.

swallowing response [3] = test: Ten-minute infusion of taste stimuli directly into the stomach; pharyngeal MEP (Example 3); type: in vivo, human; settings: volunteers; ten minute infusion administered directly to the stomach
Source text: The ability of substances such as the […] tasting alkaloid quinine to stimulate the swallowing response when administered into the portion of the upper digestive tract below the mouth was in a third study measuring swallowing reflexes of volunteers receiving neutral, pleasant or aversive taste stimuli. Volunteers receive a ten minute infusion of neutral (water), pleasant (glucose) or aversive (quinine) taste stimuli administered directly into the volunteer's stomach.

**Q.** What does the source list for `C=C[C@H]1C[N@@]2CC[C@H]1C[C@H]2[C@H](O)c1ccnc2ccc(OC)cc12` [quinine]?
**A.** maximum percentage change from base line in pharyngeal motor evoked potential (MEP) amplitude [1]: 48±11%; increase in the amplitude of MEP compared with neutral tasting water or pleasant tasting glucose (swallowing response [2]): greater increase; increase in the swallowing response (measured by MEP) (swallowing response [3]): 39%
